Here are results for 1 molecule from patent US10322097B2, “Treatment of subjects with multidrug-resistant cancer” (priority 2015, dated 2019).

Test [1] has as its system HCT116 p53-/- colon cancer cells. Briefly: MTT cytotoxicity assay, HCT116 p53-/-. The class given is cell-based. As to the method:
Cell cultures and cytotoxicity assays have been used. Celastrol was dissolved in DMSO at a final concentration of 100 mmol/L and stored at −20° C. Cytotoxicity was assessed using the 3-(4,5-dimethylthiazol-2-yl)-2,5-diphenyltetrazolium bromide assay. 4000 cells from HCT116 p53^+/+ or p53^−/− colon cancer cells and DLD-1 Bax-Bak^+/+ or Bax-Bak^−/− colon cancer cells were seeded on 96-well plates per well. […] Subsequently, 10 μL of MTT reagents were added to each well and incubated at 37° C. for 4 hours followed by the addition of 100 μL solubilization buffer (10% SDS in 0.01 mol/L HCl) and overnight incubation. […] The percentage of cell viability was calculated using the following formula: Cell viability (%)=Cells number treated/Cells number DMSO control×100. Data were obtained from three independent experiments.
A general note: Tetrazolium assays rely on reduction of a dye to a coloured formazan, in cell work by metabolically active cells.

In test [2] the test system is A549 (Lung) taxol sensitive cancer cells. Description: MTT cytotoxicity assay, A549 taxol sensitive. In kind it is cell-based. The note with it: Homo sapiens, A549, 72 h, read-out: IC50 A549 (Lung) (Taxol sensitive). As to the method:
(§1) Cell cultures and cytotoxicity assays have been used. Celastrol was dissolved in DMSO at a final concentration of 100 mmol/L and stored at −20° C. Cytotoxicity was assessed using the 3-(4,5-dimethylthiazol-2-yl)-2,5-diphenyltetrazolium bromide assay. 4000 cells from A549 (lung), A2780 (ovary), HCT-8 (colon) and MCF-7 (breast) cancer cells were seeded on 96-well plates per well. After overnight pre-incubation, the cells were exposed to different concentrations of celastrol (0.039-100 μmol/L) or taxol for 3 days. Subsequently, 10 μL of MTT reagents was added to each well and incubated at 37° C. for 4 hours followed by the addition of 100 μL solubilization buffer (10% SDS in 0.01 mol/L HCl) and overnight incubation. Absorbance at 585 nm was determined from each well the next day. The percentage of cell viability was calculated using the following formula: Cell viability (%)=Cells number treated/Cells number DMSO control×100. Data were obtained from three independent experiments.

The subject of the next test is HEK293 kidney cells. Briefly: MTT cytotoxicity assay, HEK293. The class given is cell-based. The note with it: Homo sapiens, HEK293, 72 h, 3 days. The protocol: as §1, with “from HEK293” for “from A549 (lung), A2780 (ovary), HCT-8 (colon)”, “and HEK293/ABCB5 kidney cancer cells or MDA-MB-231 pcDNA and MDA-MB-231/BCRP breast” for “and MCF-7 (breast)”, “celastrol (0.1-10” for “celastrol (0.039-100”, “μmol/L)” for “μmol/L) or taxol”, “reagents were” for “reagents was”

Test [3] has as its system CCRF-CEM (Leukemia) doxorubicin sensitive cells. Briefly: MTT cytotoxicity assay, CCRF-CEM. The class given is cell-based. The note with it: Homo sapiens, 72 h, 3 days. As to the method: as §1, with “from” for “from A549 (lung), A2780 (ovary), HCT-8 (colon) and”, “MCF-7 doxorubicin sensitive/resistant breast” for “MCF-7 (breast)”, “cancer cells or CEM doxorubicin sensitive/resistant leukemia” for “cancer”, “or doxorubicin” for “or taxol”, “reagents were” for “reagents was”

In test [4] the test system is SGC-7901 (Gastric) cisplatin sensitive cancer cells. Briefly: MTT cytotoxicity assay, SGC-7901 cisplatin sensitive. The class given is cell-based, human. The note with it: Homo sapiens, SGC-7901, 72 h, read-out: IC50 SGC-7901 (Gastric) (Cisplatin sensitive). The protocol: as §1, with “from” for “from A549 (lung),”, “A2780 cisplatin sensitive/resistant ovarian cancer cells or SGC-7901 cisplatin sensitive/resistant gastric” for “A2780 (ovary), HCT-8 (colon) and MCF-7 (breast)”, “or cisplatin” for “or taxol”, “reagents were” for “reagents was”

Test [5] concerns MCF-7 (Breast) doxorubicin sensitive cancer cells. Description: MTT cytotoxicity assay, MCF-7 doxorubicin sensitive. The settings on record: Homo sapiens, MCF7, 72 h, read-out: IC50 MCF-7 (Breast) (Doxorubicin sensitive). In kind it is cell-based. The protocol: as §1, with “from” for “from A549 (lung), A2780 (ovary), HCT-8 (colon) and”, “MCF-7 doxorubicin sensitive/resistant breast” for “MCF-7 (breast)”, “cancer cells or CEM doxorubicin sensitive/resistant leukemia” for “cancer”, “or doxorubicin” for “or taxol”, “reagents were” for “reagents was”

Test [6] relates to HCT-8 (Colon) taxol sensitive cancer cells. Description: MTT cytotoxicity assay, HCT-8 taxol sensitive. The note with it: Homo sapiens, HCT-8, 72 h, read-out: IC50 HCT-8 (Colon) (Taxol sensitive). In kind it is cell-based. The protocol: as §1
The subject of test [7] is MCF-7 (Breast) taxol sensitive cancer cells. Briefly: MTT cytotoxicity assay, MCF-7 taxol sensitive. The note with it: Homo sapiens, MCF7, 72 h, read-out: IC50 MCF-7 (Breast) (Taxol sensitive). In kind it is cell-based. The protocol: as §1

Each structure is given as a SMILES string. pIC50: −log10 of the molar value.

As to `CC1=C(O)C(=O)C=C2C1=CC=C1[C@@]2(C)CC[C@@]2(C)[C@@H]3C[C@](C)(C(=O)O)CC[C@]3(C)CC[C@]12C` [Celastrol, celastrol], the pIC50 in test [1] (Homo sapiens, HCT-116, 72 h, read-out: IC50 HCT116 p53-/- colon cancer cells) was 6.32; in test [2], 5.62; in the test on HEK293 kidney cells, 5.51; in test [3] it was 5.49; in test [4] it was 5.71; in test [5], 5.95. Besides, the figures for the pIC50 in test [6] and in test [7] were 6.03 and 5.95, respectively. Also, in test [1] (IC50 HCT116 p53-/- divided by IC50 HCT116 p53+/+), the “Resistant Factor” value is given as 0.58.
